Holding throughout (experiment): Mammalian kinase profiling (DSTT panel)
Holding throughout (assay type): biochemical
Common to all, as to conditions: 10 μM; average percentage of remaining activity

One experiment has as its target T1, PKA (Homo sapiens, UniProt P17612).
T1 construct: purchased Division of Signal Transduction Therapy (DSTT), University of Dundee
The method, then:
(§1) To assess the selectivity of the aminopyrazole inhibitors, remaining activity at 10 μM concentration was measured for compounds 4f, 4m, and 4y against a panel of 80 human PKs and for compound 9g against 124 human PKs. […] Compound 4m inhibited only two PKs, namely GSK3β and CDK2, at more than 80%.
(§2) Selected compounds were screened against a panel of mammalian kinases routinely run by the Division of Signal Transduction Therapy (DSTT) at the University of Dundee in duplicate at 10 μM.[32] Enzymes included in the panel and assay conditions are reported in the literature. All biochemical assays are run below the Km^app for the ATP for each enzyme, allowing comparison of inhibition across the panel.

The next experiment deals with T2, ERK1 (Homo sapiens, UniProt P27361).
T2 construct: purchased Division of Signal Transduction Therapy (DSTT), University of Dundee
T2 sequence (P27361 whole entry): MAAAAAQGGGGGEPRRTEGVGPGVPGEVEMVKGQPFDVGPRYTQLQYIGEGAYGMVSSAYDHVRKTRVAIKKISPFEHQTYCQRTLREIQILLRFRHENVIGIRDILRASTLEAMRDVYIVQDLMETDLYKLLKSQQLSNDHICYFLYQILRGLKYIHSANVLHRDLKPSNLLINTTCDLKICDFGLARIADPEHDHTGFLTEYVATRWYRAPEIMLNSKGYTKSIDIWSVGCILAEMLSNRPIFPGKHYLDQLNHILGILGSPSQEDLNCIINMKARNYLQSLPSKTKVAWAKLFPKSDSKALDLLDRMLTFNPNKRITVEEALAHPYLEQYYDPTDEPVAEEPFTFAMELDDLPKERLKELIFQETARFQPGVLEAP
The method, then: as §1, §2

The target in the next experiment is T3, PAK5 (Homo sapiens, UniProt Q9P286).
T3 construct: purchased Division of Signal Transduction Therapy (DSTT), University of Dundee
T3 sequence (Q9P286 whole entry): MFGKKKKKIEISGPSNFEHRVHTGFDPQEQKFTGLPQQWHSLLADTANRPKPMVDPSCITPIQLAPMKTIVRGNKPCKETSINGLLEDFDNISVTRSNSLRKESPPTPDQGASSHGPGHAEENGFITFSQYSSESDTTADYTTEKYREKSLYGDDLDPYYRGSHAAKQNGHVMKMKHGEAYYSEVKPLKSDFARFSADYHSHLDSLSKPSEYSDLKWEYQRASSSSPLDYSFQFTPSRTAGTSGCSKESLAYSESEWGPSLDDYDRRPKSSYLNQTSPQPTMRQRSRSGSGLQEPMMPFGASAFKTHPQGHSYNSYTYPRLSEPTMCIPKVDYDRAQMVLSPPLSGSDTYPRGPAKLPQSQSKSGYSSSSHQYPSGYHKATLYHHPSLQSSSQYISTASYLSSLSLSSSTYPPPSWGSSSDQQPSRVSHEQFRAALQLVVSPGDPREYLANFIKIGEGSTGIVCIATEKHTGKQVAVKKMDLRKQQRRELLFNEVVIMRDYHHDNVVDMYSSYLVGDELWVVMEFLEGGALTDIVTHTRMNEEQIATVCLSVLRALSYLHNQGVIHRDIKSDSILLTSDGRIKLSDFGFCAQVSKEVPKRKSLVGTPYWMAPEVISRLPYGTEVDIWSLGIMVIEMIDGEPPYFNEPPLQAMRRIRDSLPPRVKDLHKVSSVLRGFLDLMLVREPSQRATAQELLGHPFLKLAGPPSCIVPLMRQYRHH
Here is the method: as §1, §2

The target of another experiment is T4, PKCa (Homo sapiens, UniProt P17252).
T4 construct: purchased Division of Signal Transduction Therapy (DSTT), University of Dundee
Here is the method:
as §1, §2

The next experiment addresses T5, PIM2 (Homo sapiens, UniProt Q9P1W9).
T5 construct: purchased Division of Signal Transduction Therapy (DSTT), University of Dundee
Here is the method:
as §1, §2

The target in the next experiment is T6, NEK2a (Homo sapiens, UniProt P51955).
T6 construct: purchased Division of Signal Transduction Therapy (DSTT), University of Dundee
T6 sequence (P51955 1-445): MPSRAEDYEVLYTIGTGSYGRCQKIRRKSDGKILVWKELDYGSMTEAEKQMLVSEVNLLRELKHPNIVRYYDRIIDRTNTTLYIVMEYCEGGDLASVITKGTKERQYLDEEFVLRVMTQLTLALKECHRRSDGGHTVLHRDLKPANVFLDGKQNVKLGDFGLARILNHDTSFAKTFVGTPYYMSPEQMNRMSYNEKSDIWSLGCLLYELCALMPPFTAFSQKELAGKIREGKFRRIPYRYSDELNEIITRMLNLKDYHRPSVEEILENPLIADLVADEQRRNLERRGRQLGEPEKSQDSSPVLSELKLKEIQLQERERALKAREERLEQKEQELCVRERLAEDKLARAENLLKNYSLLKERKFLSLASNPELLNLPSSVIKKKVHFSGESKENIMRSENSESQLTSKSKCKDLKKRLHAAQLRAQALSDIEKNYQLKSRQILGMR
The method, then:
as §1, §2

The target of another experiment is T7, SmMLCK (Homo sapiens, UniProt Q15746).
T7 construct: purchased Division of Signal Transduction Therapy (DSTT), University of Dundee
T7 sequence (Q15746 923-1914): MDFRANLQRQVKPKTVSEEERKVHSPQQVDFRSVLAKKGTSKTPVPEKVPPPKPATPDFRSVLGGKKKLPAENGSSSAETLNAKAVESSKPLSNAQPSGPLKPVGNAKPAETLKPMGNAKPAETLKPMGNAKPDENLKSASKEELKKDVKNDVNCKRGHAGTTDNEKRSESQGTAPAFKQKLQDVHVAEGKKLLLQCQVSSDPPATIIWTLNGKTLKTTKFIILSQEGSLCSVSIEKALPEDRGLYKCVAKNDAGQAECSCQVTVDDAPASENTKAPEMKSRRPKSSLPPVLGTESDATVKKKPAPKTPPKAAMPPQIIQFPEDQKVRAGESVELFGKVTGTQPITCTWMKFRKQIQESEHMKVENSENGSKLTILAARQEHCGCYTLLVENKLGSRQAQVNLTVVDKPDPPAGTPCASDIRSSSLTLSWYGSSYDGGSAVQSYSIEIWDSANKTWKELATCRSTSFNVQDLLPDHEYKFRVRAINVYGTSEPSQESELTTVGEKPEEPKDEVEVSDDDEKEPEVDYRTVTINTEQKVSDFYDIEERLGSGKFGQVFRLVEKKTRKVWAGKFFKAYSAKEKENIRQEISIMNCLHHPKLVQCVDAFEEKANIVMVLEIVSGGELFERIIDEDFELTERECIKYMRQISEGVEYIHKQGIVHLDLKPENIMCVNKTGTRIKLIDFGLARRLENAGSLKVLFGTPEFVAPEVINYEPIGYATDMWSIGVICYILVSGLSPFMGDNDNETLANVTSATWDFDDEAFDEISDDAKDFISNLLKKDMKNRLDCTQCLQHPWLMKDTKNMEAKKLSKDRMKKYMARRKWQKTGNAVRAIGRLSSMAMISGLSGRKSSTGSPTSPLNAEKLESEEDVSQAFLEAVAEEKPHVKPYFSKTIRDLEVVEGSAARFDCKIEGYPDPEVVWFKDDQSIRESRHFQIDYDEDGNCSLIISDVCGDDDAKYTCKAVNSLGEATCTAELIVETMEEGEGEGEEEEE
The method, then: as §1, §2

In another experiment the target is T8, ROCK2 (Homo sapiens, UniProt O75116).
T8 construct: purchased Division of Signal Transduction Therapy (DSTT), University of Dundee
Here is the method: as §1, §2

The target in a further experiment is T9, MST2 (Homo sapiens, UniProt Q13188).
T9 construct: purchased Division of Signal Transduction Therapy (DSTT), University of Dundee
T9 sequence (Q13188 1-491): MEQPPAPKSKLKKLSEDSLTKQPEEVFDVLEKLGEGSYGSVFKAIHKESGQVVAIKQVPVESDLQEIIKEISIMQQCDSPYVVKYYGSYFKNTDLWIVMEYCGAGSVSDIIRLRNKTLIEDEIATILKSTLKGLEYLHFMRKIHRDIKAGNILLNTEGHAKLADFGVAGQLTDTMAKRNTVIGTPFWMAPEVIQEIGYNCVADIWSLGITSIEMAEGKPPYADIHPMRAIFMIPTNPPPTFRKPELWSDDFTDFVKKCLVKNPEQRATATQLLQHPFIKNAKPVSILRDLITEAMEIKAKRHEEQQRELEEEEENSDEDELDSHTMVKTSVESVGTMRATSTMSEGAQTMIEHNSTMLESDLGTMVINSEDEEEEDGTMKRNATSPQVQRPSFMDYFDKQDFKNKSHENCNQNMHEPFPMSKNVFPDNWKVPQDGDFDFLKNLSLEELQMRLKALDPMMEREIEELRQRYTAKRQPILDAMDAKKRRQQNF
The method, then:
as §1, §2

Another experiment concerns the target T10, P38a MAPK (Homo sapiens, UniProt Q16539).
T10 construct: purchased Division of Signal Transduction Therapy (DSTT), University of Dundee
Here is the method:
as §1, §2

For a further experiment, the target named is T11, EPH-B3 (Homo sapiens, UniProt P54753).
T11 construct: purchased Division of Signal Transduction Therapy (DSTT), University of Dundee
T11 sequence (P54753 34-998): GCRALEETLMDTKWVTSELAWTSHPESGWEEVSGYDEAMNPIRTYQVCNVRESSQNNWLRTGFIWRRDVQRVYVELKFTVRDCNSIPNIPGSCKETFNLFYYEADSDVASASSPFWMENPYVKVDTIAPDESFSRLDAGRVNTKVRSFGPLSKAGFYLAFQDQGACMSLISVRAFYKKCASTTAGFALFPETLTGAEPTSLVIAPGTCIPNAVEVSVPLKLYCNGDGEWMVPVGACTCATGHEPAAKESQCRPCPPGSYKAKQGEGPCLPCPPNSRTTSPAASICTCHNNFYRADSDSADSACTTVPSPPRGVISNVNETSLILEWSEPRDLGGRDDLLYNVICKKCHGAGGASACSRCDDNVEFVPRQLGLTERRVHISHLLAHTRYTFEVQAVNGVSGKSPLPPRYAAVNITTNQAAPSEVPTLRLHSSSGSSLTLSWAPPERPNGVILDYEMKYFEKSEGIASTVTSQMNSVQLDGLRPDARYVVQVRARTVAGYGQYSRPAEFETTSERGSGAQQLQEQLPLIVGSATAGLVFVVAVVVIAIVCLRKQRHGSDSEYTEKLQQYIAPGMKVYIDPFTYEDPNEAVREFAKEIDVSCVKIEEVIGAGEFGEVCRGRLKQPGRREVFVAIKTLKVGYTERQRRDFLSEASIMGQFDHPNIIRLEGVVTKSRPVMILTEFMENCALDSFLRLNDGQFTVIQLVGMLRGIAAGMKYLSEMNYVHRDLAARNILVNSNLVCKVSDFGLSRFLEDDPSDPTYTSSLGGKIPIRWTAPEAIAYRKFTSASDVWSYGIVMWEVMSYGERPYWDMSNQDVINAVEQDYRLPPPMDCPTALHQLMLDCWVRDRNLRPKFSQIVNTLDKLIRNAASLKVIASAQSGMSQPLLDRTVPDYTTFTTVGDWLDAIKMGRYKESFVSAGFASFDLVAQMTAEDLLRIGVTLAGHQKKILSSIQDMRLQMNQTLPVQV
The method, then: as §1, §2

Another experiment addresses T12, CK2 (Homo sapiens, UniProt P68400).
T12 construct: purchased Division of Signal Transduction Therapy (DSTT), University of Dundee
Here is the method:
as §1, §2

In the next experiment the target is T13, YES1 (Homo sapiens, UniProt P07947).
T13 construct: purchased Division of Signal Transduction Therapy (DSTT), University of Dundee
Here is the method:
as §1, §2

For a further experiment, the target named is T14, SRPK1 (Homo sapiens, UniProt Q96SB4).
T14 construct: purchased Division of Signal Transduction Therapy (DSTT), University of Dundee
T14 sequence (Q96SB4 whole entry): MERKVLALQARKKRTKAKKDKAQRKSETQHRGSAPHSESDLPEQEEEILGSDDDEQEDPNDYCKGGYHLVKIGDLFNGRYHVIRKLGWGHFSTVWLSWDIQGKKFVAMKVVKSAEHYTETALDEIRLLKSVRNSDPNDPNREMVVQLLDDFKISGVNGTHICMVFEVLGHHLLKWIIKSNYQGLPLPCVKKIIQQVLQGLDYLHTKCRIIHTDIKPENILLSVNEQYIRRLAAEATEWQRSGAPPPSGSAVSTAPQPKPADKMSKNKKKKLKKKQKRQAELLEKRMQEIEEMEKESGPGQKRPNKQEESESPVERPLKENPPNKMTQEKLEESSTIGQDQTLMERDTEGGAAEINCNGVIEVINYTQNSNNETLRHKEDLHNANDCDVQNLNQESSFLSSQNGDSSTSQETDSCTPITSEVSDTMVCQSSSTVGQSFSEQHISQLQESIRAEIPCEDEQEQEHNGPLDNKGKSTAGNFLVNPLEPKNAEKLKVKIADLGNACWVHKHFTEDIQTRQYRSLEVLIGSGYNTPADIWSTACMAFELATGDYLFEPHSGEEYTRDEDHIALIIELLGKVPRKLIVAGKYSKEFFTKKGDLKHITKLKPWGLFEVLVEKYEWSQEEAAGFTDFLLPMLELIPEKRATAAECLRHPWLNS
Here is the method:
as §1, §2

For a further experiment, the target named is T15, CHK2 (Homo sapiens, UniProt O96017).
T15 construct: purchased Division of Signal Transduction Therapy (DSTT), University of Dundee
T15 sequence (O96017 whole entry): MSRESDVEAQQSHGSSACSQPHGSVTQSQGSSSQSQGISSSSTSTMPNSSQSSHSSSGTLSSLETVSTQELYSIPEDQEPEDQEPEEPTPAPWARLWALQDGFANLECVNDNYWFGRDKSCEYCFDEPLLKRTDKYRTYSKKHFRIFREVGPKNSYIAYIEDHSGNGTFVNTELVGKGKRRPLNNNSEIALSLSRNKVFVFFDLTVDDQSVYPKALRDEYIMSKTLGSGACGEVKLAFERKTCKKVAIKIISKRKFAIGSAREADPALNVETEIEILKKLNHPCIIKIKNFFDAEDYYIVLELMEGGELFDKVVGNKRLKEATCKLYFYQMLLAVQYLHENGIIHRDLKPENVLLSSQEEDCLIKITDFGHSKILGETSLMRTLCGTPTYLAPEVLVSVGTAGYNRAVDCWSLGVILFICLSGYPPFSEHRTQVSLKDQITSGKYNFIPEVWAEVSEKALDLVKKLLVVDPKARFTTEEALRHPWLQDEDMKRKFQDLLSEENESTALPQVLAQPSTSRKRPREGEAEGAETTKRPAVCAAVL
Here is the method:
as §1, §2

T12 sequence (P68400 whole entry): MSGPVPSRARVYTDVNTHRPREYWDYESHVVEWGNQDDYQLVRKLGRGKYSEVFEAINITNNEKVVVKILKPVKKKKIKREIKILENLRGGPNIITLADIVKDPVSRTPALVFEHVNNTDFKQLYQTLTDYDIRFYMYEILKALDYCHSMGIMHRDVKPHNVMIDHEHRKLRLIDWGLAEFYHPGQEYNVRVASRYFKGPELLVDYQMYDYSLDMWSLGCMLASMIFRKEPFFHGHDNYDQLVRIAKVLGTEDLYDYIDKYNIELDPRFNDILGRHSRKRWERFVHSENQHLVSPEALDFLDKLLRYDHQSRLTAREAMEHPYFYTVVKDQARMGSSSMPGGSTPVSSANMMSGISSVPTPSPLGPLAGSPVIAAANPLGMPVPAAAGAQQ
T10 sequence (Q16539 whole entry): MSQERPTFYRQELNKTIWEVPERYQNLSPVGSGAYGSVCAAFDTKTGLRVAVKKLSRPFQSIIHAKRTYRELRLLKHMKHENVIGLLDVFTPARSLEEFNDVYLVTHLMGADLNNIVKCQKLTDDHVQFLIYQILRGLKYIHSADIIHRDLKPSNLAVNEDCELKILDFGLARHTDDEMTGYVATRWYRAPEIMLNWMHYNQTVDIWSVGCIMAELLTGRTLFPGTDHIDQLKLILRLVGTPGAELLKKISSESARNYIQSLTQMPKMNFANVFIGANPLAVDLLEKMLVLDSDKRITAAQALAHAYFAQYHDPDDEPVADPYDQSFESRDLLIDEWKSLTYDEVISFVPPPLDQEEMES
T5 sequence (Q9P1W9 whole entry): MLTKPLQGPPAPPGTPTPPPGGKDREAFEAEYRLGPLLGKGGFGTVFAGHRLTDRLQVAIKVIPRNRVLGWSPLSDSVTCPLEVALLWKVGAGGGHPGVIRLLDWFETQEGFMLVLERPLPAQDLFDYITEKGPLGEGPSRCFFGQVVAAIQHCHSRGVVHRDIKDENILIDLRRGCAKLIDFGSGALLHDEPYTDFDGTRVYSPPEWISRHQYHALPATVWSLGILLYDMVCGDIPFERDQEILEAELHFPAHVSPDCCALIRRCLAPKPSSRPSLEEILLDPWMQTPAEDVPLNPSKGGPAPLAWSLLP

Turning to `CO[C@H]1CC[C@H](NC(=O)c2n[nH]cc2NC(=O)c2ccccc2)CC1` [Compound 4f, 4-Benzamido-N-(4-methoxycyclohexyl)-1H-pyrazole-3-carboxamide], the “PKA activity compared to the control” value at PKA is given as 81%. Further, on ERK1, the “ERK1 activity compared to the control” value was determined as 75%. Also, the “PAK5 activity compared to the control” value on PAK5 amounted to 68%. In addition, the “PKCa activity compared to the control” value on PKCa came out at 49%. Moreover, the “PIM2 activity compared to the control” value on PIM2 was found to be 90%. Moreover, at NEK2a, the “NEK2a activity compared to the control” value was 100%. Also, at SmMLCK, the “SmMLCK activity compared to the control” value turned out to be 25%. Further, the “ROCK2 activity compared to the control” value on ROCK2 worked out at 81%. Also, the “MST2 activity compared to the control” value at MST2 is 72%. Further, the “P38a MAPK activity compared to the control” value on P38a MAPK worked out at 81%. The “EPH-B3 activity compared to the control” value on EPH-B3 is 60%. The “CK2 activity compared to the control” value on CK2 is given as 74%. Besides, the “YES1 activity compared to the control” value on YES1 was 100%. Further, the “SRPK1 activity compared to the control” value on SRPK1 was found to be 90%. The “CHK2 activity compared to the control” value on CHK2 is reported as 100%.

In the case of `COc1cccc(OC)c1C(=O)Nc1c[nH]nc1C(=O)NC1CCC(OC)CC1` (stereo not drawn) [Compound 4m, 4-(2,6-Dimethoxybenzamido)-N-(4-methoxycyclohexyl)-1H-pyrazole-3-carboxamide], on PKA, the “PKA activity compared to the control” value is listed as 74%. Moreover, the “ERK1 activity compared to the control” value on ERK1 is listed as 100%. Besides, the “PAK5 activity compared to the control” value on PAK5 is reported as 75%. Moreover, the “PKCa activity compared to the control” value on PKCa is 90%. Also, the “PIM2 activity compared to the control” value on PIM2 was 97%. In addition, the “NEK2a activity compared to the control” value on NEK2a was found to be 99%. Moreover, at SmMLCK, the “SmMLCK activity compared to the control” value came to 65%. The “ROCK2 activity compared to the control” value at ROCK2 amounted to 74%. Further, the “MST2 activity compared to the control” value on MST2 worked out at 81%. For the same compound, the “P38a MAPK activity compared to the control” value at P38a MAPK was 80%. Also, on EPH-B3, the “EPH-B3 activity compared to the control” value is on record as 100%. In addition, the “CK2 activity compared to the control” value on CK2 was found to be 100%. On YES1, the “YES1 activity compared to the control” value came out at 79%. Moreover, the “SRPK1 activity compared to the control” value on SRPK1 was found to be 78%. For the same compound, the “CHK2 activity compared to the control” value at CHK2 amounted to 75%.

As for `CO[C@H]1CC[C@H](NC(=O)c2n[nH]cc2NC(=O)c2ccc(-c3ccccc3)o2)CC1` [Compound 4y, N-(4-Methoxycyclohexyl)-4-(5-phenylfuran-2-carboxamido)-1H-pyrazole-3-carboxamide], on PKA, the “PKA activity compared to the control” value is 76%. In addition, on ERK1, the “ERK1 activity compared to the control” value is 33%. For the same compound, on PAK5, the “PAK5 activity compared to the control” value worked out at 47%. For the same compound, the “PKCa activity compared to the control” value on PKCa is listed as 48%. In addition, the “PIM2 activity compared to the control” value at PIM2 is given as 82%. Besides, the “NEK2a activity compared to the control” value at NEK2a stood at 69%. Moreover, on SmMLCK, the “SmMLCK activity compared to the control” value came to 23%. Further, the “ROCK2 activity compared to the control” value on ROCK2 amounted to 72%. Besides, the “MST2 activity compared to the control” value on MST2 is reported as 69%. Further, on P38a MAPK, the “P38a MAPK activity compared to the control” value was found to be 71%. On EPH-B3, the “EPH-B3 activity compared to the control” value was determined as 72%. Besides, the “CK2 activity compared to the control” value at CK2 was 21%. Moreover, on YES1, the “YES1 activity compared to the control” value amounted to 45%. The “SRPK1 activity compared to the control” value on SRPK1 was found to be 72%. Further, the “CHK2 activity compared to the control” value on CHK2 was 51%.
